# Data taken from patent publication US20130005568A1, “SAFENED HERBICIDAL MIXTURES” (E.I. DU PONT DE NEMOURS AND COMPANY, priority 2011, published 2013).
# How the values were obtained:
# Purple nutsedge = assay: Test G: turf grass and weed postemergence plant response rating; type: in vivo, Cyperus rotundus L.; details: Purple nutsedge, postemergence, greenhouse, three weeks, 0-100 scale
# Source text: (§1) For all of the following biological tests, plant response ratings were based on a 0-100 scale where zero is growth equivalent to that of untreated plants (no plant response) and 100 represents no additional growth occurring after herbicide treatment.
# (§2) Plants of the turf grass species: zoysia (Zoysia japonica Steud.), bermudagrass (Cynodon dactylon (L.) Pers.), tall fescue (Festuca arundinacea Shreib.), creeping bentgrass (Agrostis stoonoifera L.), perennial ryegrass (Lolium perenne L.) and hard fescue (Festuca species) were grown under greenhouse conditions for four months. Plants were clipped as needed to plant heights of 5-10 cm. Weeds typically found in turf: annual bluegrass (Poa annua L.), common chickweed (Stellaria media (L.) Vill.), large crabgrass (Digitaria sanguinales (L.) Scop.), dandelion (Taraxacum officinale Weber in Wiggers), goosegrass (Eleusine indica (L.) Gaertn.), henbit (Lamium amplexicaule L.), venice mallow (Hibiscus trionium L.) and purple nutsedge (Cyperus rotundus L.) were also grown under greenhouse conditions so that plants were 5-20 cm tall when they were treated. Herbicide mixtures were formulated, dissolved/dispersed in water containing 0.25% non-ionic surfactant, and sprayed postemergence to these turf grasses and weeds. Treated plants were grown under greenhouse conditions for three weeks before visual evaluations of plant responses were recorded.
# Annual bluegrass = assay: as above; type: in vivo, Poa annua L.; details: Annual bluegrass, postemergence, greenhouse, three weeks, 0-100 scale
# Source text: as §1, §2
# Venice mallow = assay: as above; type: in vivo, Hibiscus trionium L.; details: Venice mallow, postemergence, greenhouse, three weeks, 0-100 scale
# Source text: as §1, §2
# Henbit = assay: as above; type: in vivo, Lamium amplexicaule L.; details: Henbit, postemergence, greenhouse, three weeks, 0-100 scale
# Source text: as §1, §2
# Bermudagrass = assay: as above; type: in vivo, Cynodon dactylon (L.) Pers.; details: Bermudagrass, postemergence, greenhouse, three weeks, 0-100 scale
# Source text: as §1
# Plants of the turf grass species: zoysia (Zoysia japonica Steud.), bermudagrass (Cynodon dactylon (L.) Pers.), tall fescue (Festuca arundinacea Shreib.), creeping bentgrass (Agrostis stoonoifera L.), perennial ryegrass (Lolium perenne L.) and hard fescue (Festuca species) were grown under greenhouse conditions for four months. Plants were clipped as needed to plant heights of 5-10 cm. […] Herbicide mixtures were formulated, dissolved/dispersed in water containing 0.25% non-ionic surfactant, and sprayed postemergence to these turf grasses and weeds. Treated plants were grown under greenhouse conditions for three weeks before visual evaluations of plant responses were recorded.
# Dandelion = assay: as above; type: in vivo, Taraxacum officinale Weber in Wiggers; details: Dandelion, postemergence, greenhouse, three weeks, 0-100 scale
# Source text: as §1, §2
# Chickweed = assay: as above; type: in vivo, Stellaria media (L.) Vill.; details: Chickweed, postemergence, greenhouse, three weeks, 0-100 scale
# Source text: as §1, §2
# Large crabgrass = assay: as above; type: in vivo, Digitaria sanguinales (L.) Scop.; details: Large crabgrass, postemergence, greenhouse, three weeks, 0-100 scale
# Source text: as §1, §2
# Goosegrass = assay: as above; type: in vivo, Eleusine indica (L.) Gaertn.; details: Goosegrass, postemergence, greenhouse, three weeks, 0-100 scale
# Source text: as §1, §2
# [1] = test system: Pioneer 39K40 hybrid maize; assay: Test A: visual plant response rating, postemergence herbicide treatments alone and with Compound 1; type: in vivo, Zea mays L. spp. indentata Sturt.; details: in vivo
# Description: as §1
# Pioneer 39K40 hybrid maize used in this test (and also Tests B and C) is particularly sensitive to herbicides that inhibit the acetohydroxy acid synthase enzyme. Herbicide mixtures were dissolved/dispersed in a non-phytotoxic liquid carrier and were sprayed postemergence to Pioneer 39K40 hybrid maize (Zea mays L. spp. indentata Sturt.) in the third collar growth stage (extended leaf height was 50-60 cm). Treated plants were grown under greenhouse conditions for two weeks before visual evaluations of plant responses were recorded.
# [2] = herbicide 200 g ai/ha + Compound 1 125 g ai/ha
# [3] = herbicide 80 g ai/ha + Compound 1 125 g ai/ha
smiles,measurement,setting,value
"Nc1nc(C2CC2)nc(C(=O)[O-])c1Cl.[K+] [Aminocyclopyrachlor-potassium, aminocyclopyrachlor]","Observed Response, Herbicide mixture with Compound 1",Purple nutsedge; [2],40
same,"Observed Response, Herbicide alone",Purple nutsedge; herbicide 200 g ai/ha,40
same,"Observed Response, Herbicide mixture with Compound 1",Annual bluegrass; [2],0
same,"Observed Response, Herbicide alone",Annual bluegrass; herbicide 200 g ai/ha,20
same,"Observed Response, Herbicide mixture with Compound 1",Venice mallow; [2],98
same,"Observed Response, Herbicide alone",Venice mallow; herbicide 200 g ai/ha,100
same,"Observed Response, Herbicide mixture with Compound 1",Henbit; [2],100
same,"Observed Response, Herbicide alone",Henbit; herbicide 200 g ai/ha,100
same,"Observed Response, Herbicide mixture with Compound 1",Bermudagrass; [2],0
same,"Observed Response, Herbicide alone",Bermudagrass; herbicide 200 g ai/ha,20
same,"Observed Response, Herbicide mixture with Compound 1",Dandelion; [2],100
same,"Observed Response, Herbicide alone",Dandelion; herbicide 200 g ai/ha,100
same,"Observed Response, Herbicide mixture with Compound 1",Chickweed; [2],100
same,"Observed Response, Herbicide alone",Chickweed; herbicide 200 g ai/ha,100
same,"Observed Response, Herbicide mixture with Compound 1",Large crabgrass; [2],70
same,"Observed Response, Herbicide alone",Large crabgrass; herbicide 200 g ai/ha,80
same,"Observed Response, Herbicide mixture with Compound 1",Goosegrass; [2],0
same,"Observed Response, Herbicide alone",Goosegrass; herbicide 200 g ai/ha,50
"COC(=O)c1ccccc1S(=O)(=O)NC(=O)Nc1nc(C)nc(OC)n1 [Metsulfuron-methyl, metsulfuron-methyl]","Observed Response, Herbicide mixture with Compound 1",Purple nutsedge; [3],20
same,"Observed Response, Herbicide alone",Purple nutsedge; herbicide 80 g ai/ha,60
same,"Observed Response, Herbicide alone",[1],99
same,"Observed Response, Herbicide mixture with Compound 1",Annual bluegrass; [3],50
same,"Observed Response, Herbicide alone",Annual bluegrass; herbicide 80 g ai/ha,80
same,"Observed Response, Herbicide mixture with Compound 1",Venice mallow; [3],100
same,"Observed Response, Herbicide alone",Venice mallow; herbicide 80 g ai/ha,100
same,"Observed Response, Herbicide mixture with Compound 1",Henbit; [3],100
same,"Observed Response, Herbicide alone",Henbit; herbicide 80 g ai/ha,100
same,"Observed Response, Herbicide mixture with Compound 1",Dandelion; [3],100
same,"Observed Response, Herbicide alone",Dandelion; herbicide 80 g ai/ha,100
same,"Observed Response, Herbicide mixture with Compound 1",Chickweed; [3],100
same,"Observed Response, Herbicide alone",Chickweed; herbicide 80 g ai/ha,100
same,"Observed Response, Herbicide mixture with Compound 1",Large crabgrass; [3],0
same,"Observed Response, Herbicide alone",Large crabgrass; herbicide 80 g ai/ha,60
same,"Observed Response, Herbicide mixture with Compound 1",Goosegrass; [3],0
same,"Observed Response, Herbicide alone",Goosegrass; herbicide 80 g ai/ha,50
